Test results reported in PubChem BioAssay (NCI).
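Five compound concentrations were applied to cells in 96-well plates for 48 hours; endpoints were derived by simple linear interpolation of the resulting dose-response curve. TGI: concentration producing complete growth inhibition.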

Columns and labels:
Experiment in all cases: DTP human tumour cell line panel, 48 h
SNB-19 CNS = test system: SNB-19 CNS
UACC-257 melanoma = test system: UACC-257 melanoma
UACC-62 melanoma = test system: UACC-62 melanoma
HT29 colon = test system: HT29 colon
LOX IMVI melanoma = test system: LOX IMVI melanoma
RXF 393 renal = test system: RXF 393 renal
EKVX NSCLC = test system: EKVX NSCLC
PC-3 prostate = test system: PC-3 prostate
MOLT-4 leukemia = test system: MOLT-4 leukemia
A498 renal = test system: A498 renal
U251 CNS = test system: U251 CNS
IGROV1 ovarian = test system: IGROV1 ovarian
A549 NSCLC = test system: A549 NSCLC
NCI-H460 lung = test system: NCI-H460 lung
M14 melanoma = test system: M14 melanoma
CCRF-CEM leukemia = test system: CCRF-CEM leukemia
DU-145 prostate = test system: DU-145 prostate
MCF7 breast = test system: MCF7 breast
NCI/ADR-RES ovarian = test system: NCI/ADR-RES ovarian
K-562 leukemia = test system: K-562 leukemia
HCC-2998 colon = test system: HCC-2998 colon
OVCAR-5 ovarian = test system: OVCAR-5 ovarian
SK-MEL-2 melanoma = test system: SK-MEL-2 melanoma
OVCAR-4 ovarian = test system: OVCAR-4 ovarian
HS 578T breast = test system: HS 578T breast
OVCAR-3 ovarian = test system: OVCAR-3 ovarian
NCI-H23 lung = test system: NCI-H23 lung
HCT-116 colon = test system: HCT-116 colon
MALME-3M melanoma = test system: MALME-3M melanoma
RPMI-8226 leukemia = test system: RPMI-8226 leukemia
SK-MEL-28 melanoma = test system: SK-MEL-28 melanoma
SK-OV-3 ovarian = test system: SK-OV-3 ovarian
SF-295 CNS = test system: SF-295 CNS
ACHN renal = test system: ACHN renal
KM12 colon = test system: KM12 colon
UO-31 renal = test system: UO-31 renal
NCI-H226 lung = test system: NCI-H226 lung
HOP-62 NSCLC = test system: HOP-62 NSCLC
SK-MEL-5 melanoma = test system: SK-MEL-5 melanoma
SF-268 CNS = test system: SF-268 CNS
MDA-MB-231 breast = test system: MDA-MB-231 breast
TK-10 renal = test system: TK-10 renal
SNB-75 CNS = test system: SNB-75 CNS
OVCAR-8 ovarian = test system: OVCAR-8 ovarian
HCT-15 colon = test system: HCT-15 colon
SW-620 colon = test system: SW-620 colon
CAKI-1 renal = test system: CAKI-1 renal
786-0 renal = test system: 786-0 renal
COLO 205 colon = test system: COLO 205 colon
MDA-N = test system: MDA-N
HL-60(TB) leukemia = test system: HL-60(TB) leukemia
SN12C renal = test system: SN12C renal
NCI-H522 lung = test system: NCI-H522 lung
T-47D breast = test system: T-47D breast
MDA-MB-435 = test system: MDA-MB-435
SR leukemia = test system: SR leukemia
SF-539 CNS = test system: SF-539 CNS

CN(C)/C=C1\CCc2ccc([N+](=O)[O-])cc2C1=O
TGI (SNB-19 CNS): > 100 µM
TGI (UACC-257 melanoma): 38.2 µM
TGI (UACC-62 melanoma): 76.4 µM
TGI (HT29 colon): 53.7 µM
TGI (LOX IMVI melanoma): 42.6 µM
TGI (RXF 393 renal): > 100 µM
TGI (EKVX NSCLC): > 100 µM
TGI (PC-3 prostate): > 100 µM
TGI (MOLT-4 leukemia): 51 µM
TGI (A498 renal): > 100 µM
TGI (U251 CNS): > 100 µM
TGI (IGROV1 ovarian): > 100 µM
TGI (A549 NSCLC): > 100 µM
TGI (NCI-H460 lung): > 100 µM
TGI (M14 melanoma): > 100 µM
TGI (CCRF-CEM leukemia): 52.4 µM
TGI (DU-145 prostate): > 100 µM
TGI (MCF7 breast): 48 µM
TGI (NCI/ADR-RES ovarian): > 100 µM
TGI (K-562 leukemia): 56.8 µM
TGI (HCC-2998 colon): > 100 µM
TGI (OVCAR-5 ovarian): > 100 µM
TGI (SK-MEL-2 melanoma): > 100 µM
TGI (OVCAR-4 ovarian): 34.2 µM
TGI (HS 578T breast): > 100 µM
TGI (OVCAR-3 ovarian): 41.2 µM
TGI (NCI-H23 lung): > 100 µM
TGI (HCT-116 colon): 36 µM
TGI (MALME-3M melanoma): > 100 µM
TGI (RPMI-8226 leukemia): 62.2 µM
TGI (SK-MEL-28 melanoma): > 100 µM
TGI (SK-OV-3 ovarian): > 100 µM
TGI (SF-295 CNS): > 100 µM
TGI (ACHN renal): > 100 µM
TGI (KM12 colon): > 100 µM
TGI (UO-31 renal): > 100 µM
TGI (NCI-H226 lung): > 100 µM
TGI (HOP-62 NSCLC): > 100 µM
TGI (SK-MEL-5 melanoma): > 100 µM
TGI (SF-268 CNS): > 100 µM
TGI (MDA-MB-231 breast): 43.8 µM
TGI (TK-10 renal): > 100 µM
TGI (SNB-75 CNS): > 100 µM
TGI (OVCAR-8 ovarian): > 100 µM
TGI (HCT-15 colon): > 100 µM
TGI (SW-620 colon): 97.1 µM
TGI (CAKI-1 renal): > 100 µM
TGI (786-0 renal): > 100 µM
TGI (COLO 205 colon): 43.5 µM
TGI (MDA-N): 38.1 µM
TGI (HL-60(TB) leukemia): 66.6 µM
TGI (SN12C renal): 40.4 µM
TGI (NCI-H522 lung): > 100 µM
TGI (T-47D breast): 89.6 µM
TGI (MDA-MB-435): 34.8 µM
TGI (SR leukemia): 74.2 µM

CCOC(=O)C(/C=N\C(=S)Nc1c(CC)cccc1C(C)(C)C)=C(/O)c1ccccc1
TGI (UACC-257 melanoma): > 100 µM
TGI (UACC-62 melanoma): > 100 µM
TGI (HT29 colon): > 100 µM
TGI (LOX IMVI melanoma): > 100 µM
TGI (RXF 393 renal): > 100 µM
TGI (EKVX NSCLC): > 100 µM
TGI (PC-3 prostate): > 100 µM
TGI (MOLT-4 leukemia): > 100 µM
TGI (A498 renal): > 100 µM
TGI (U251 CNS): > 100 µM
TGI (IGROV1 ovarian): > 100 µM
TGI (A549 NSCLC): > 100 µM
TGI (M14 melanoma): > 100 µM
TGI (CCRF-CEM leukemia): > 100 µM
TGI (DU-145 prostate): > 100 µM
TGI (MCF7 breast): > 100 µM
TGI (NCI/ADR-RES ovarian): > 100 µM
TGI (K-562 leukemia): > 100 µM
TGI (HCC-2998 colon): > 100 µM
TGI (OVCAR-5 ovarian): > 100 µM
TGI (SK-MEL-2 melanoma): > 100 µM
TGI (OVCAR-4 ovarian): > 100 µM
TGI (HS 578T breast): 87.5 µM
TGI (NCI-H23 lung): > 100 µM
TGI (HCT-116 colon): > 100 µM
TGI (MALME-3M melanoma): > 100 µM
TGI (RPMI-8226 leukemia): > 100 µM
TGI (SK-MEL-28 melanoma): > 100 µM
TGI (SK-OV-3 ovarian): > 100 µM
TGI (SF-295 CNS): > 100 µM
TGI (ACHN renal): > 100 µM
TGI (KM12 colon): > 100 µM
TGI (UO-31 renal): > 100 µM
TGI (NCI-H226 lung): > 100 µM
TGI (HOP-62 NSCLC): > 100 µM
TGI (SK-MEL-5 melanoma): > 100 µM
TGI (SF-268 CNS): > 100 µM
TGI (MDA-MB-231 breast): > 100 µM
TGI (SNB-75 CNS): > 100 µM
TGI (OVCAR-8 ovarian): > 100 µM
TGI (HCT-15 colon): > 100 µM
TGI (SW-620 colon): > 100 µM
TGI (CAKI-1 renal): > 100 µM
TGI (786-0 renal): > 100 µM
TGI (COLO 205 colon): > 100 µM
TGI (MDA-N): > 100 µM
TGI (HL-60(TB) leukemia): > 100 µM
TGI (SN12C renal): > 100 µM
TGI (NCI-H522 lung): > 100 µM
TGI (SF-539 CNS): > 100 µM
TGI (T-47D breast): > 100 µM
TGI (MDA-MB-435): > 100 µM
TGI (SR leukemia): > 100 µM
